Results taken from patent publication US12275985B2, “Redox labeled oligonucleotide probes and their use” (ABBOTT DIAGNOSTICS SCARBOROUGH, INC., priority 2016, dated 2025).

Legend:
[1] = test system: InfA[PA] and InfB[PA] DNA; assay: Duplexed RPA detection with 1:1 mixture of MB- and PZ9-labelled probes on HeartCheck sensor; parameters: species or system Influenza A and Influenza B; details: duplexed detection at 15 min, 10^7 copies of each target, third order polynomial baseline correction
[2] = DPV detection of cleaved redox labels in RPA reactions (peak potential and current); type: physicochemical; details: for E (DPV peak potential of cleaved label) / ΔE vs MB: label cleaved from Fpg probe in RPA, DPV
Protocol: DNA and RNA amplification by RPA can be monitored in real-time or by end-product detection using the TwistAmp® basic kit with DPV detection. Briefly, a clinical sample (e.g., a clinical swab or wipe) is added to an RPA reagent mixture specific for a target nucleic acid sequence, the reagent mixture containing an Exo or Fpg oligonucleotide probe labeled with a redox-moiety, such as those described above, and maintained at 37° C.-42° C. for a time sufficient for amplification. Incubation in the presence of an ExoIII or Fpg exonuclease results in cleavage of probe/target DNA hybrids which allows for liberation of the redox-moiety (see FIG. 14). The liberated redox-moiety can be detected by, for example, amperometry, voltammetry (e.g., Differential Pulse voltammetry), and AC-impedance. Where the redox label has been cleaved from the probe/target complex (i.e., a sample positive for the target nucleic acid) a peak in current is observed at a voltage which corresponds to the oxidation potential of the label. Where the redox label has not been released from the oligonucleotide probe (i.e., a sample negative for the target nucleic acid), no peak is observed.
A “DPV output” of a given RPA reaction is determined by measuring the signal current generated by the redox-label present in the reaction in response to applied potentials. The DPV procedure requires the definition of several key parameters: interval period (related to scan rate), step potential, amplitude of the pulse (amp) and time of the pulse (pulse width). An example of these settings were: interval period 0.1 s, step potential 5 mV, pulse amplitude 75 mV and pulse width 30 ms. In addition to these parameters for the actual measurement, the DPV protocol also entails a series of 3 initial sequences of potential changes (“sweeps”) the output of which is not being directly quantified.
At FIG. 1, a method for electrochemical detection of an amplified nucleic acid target sequence according to an embodiment of the present invention is show. […] In the presence of the target, multiple copies of the DNA strand complementary to the labeled oligonucleotide probe are generated using a nucleic acid amplification method, such as, for example, PCR, RPA (shown), or NEAR. Following amplification, the DNA strand complementary to the labeled oligonucleotide probe anneal (i.e., hybridize) with the probe and form a double-stranded substrate. In the presence of a nuclease, the redox moiety (i.e., redox label) is enzymatically cleaved from (e.g., separated from) from the double-stranded substrate effecting release of the redox label. Once cleaved, the redox moiety (i.e., redox label) is able to diffuse and interact with the electrode and detection of the redox moiety is achieved by, for example, DPV, whereby a potential window (E) is swept in a stepwise fashion, and the Faradaic current (I) associated with reduction of the label is recorded. Diffusing redox labels that have been enzymatically released from oligonucleotide probes generate a larger current response, thus enabling electrochemical detection of target amplification.
For example, during initial studies on Alere HeartCheck electrodes, redox moieties with a reduction potential (versus a Ag/AgCl reference electrode) of between approximately […] were considered optimal for multiplexing (FIG. 2). In order to resolve two redox moieties which fall within this window, a difference (ΔE) of approximately ≥50 mV in their peak potential is predicted to be sufficient. Thus, in the case of the HeartCheck electrode, there is a theoretical maximum multiplexing capacity of 5 labels within this window. Note however that alternative (electrode-dependent) windows for detection may be determined.

[3] = Aqueous solubility of redox label; type: physicochemical

SMILES	Emax of calculated Gaussian curve [1]	reduction peak potential ([2]; vs Ag/AgCl during DPV in an RPA context)	E (DPV peak potential of cleaved label) [2]	ΔE vs MB [2]	aqueous solubility [3]
CN(C)c1ccc2nc3ccc(N(C)C)cc3[s+]c2c1.[Cl-] [Methylene Blue, 3,7-bis(Dimethylamino)-phenothiazin-5-ium chloride]	−0.3731 V	−320 mV	–	–	–
C[N+](C)=c1ccc2nc3c(cc(NCCC(=O)O)c4ccccc43)oc-2c1.[Cl-] [PO1, N-(5-(2-carboxyethylamino)-9H-benzo[a]phenoxazin-9-ylidene)-N-methylmethanaminium chloride]	–	–	~−0.52 V	~−140 mV	–
CC/[N+](CCCS(=O)(=O)[O-])=c1/ccc2nc3ccc(N(C)CCC(=O)O)cc3oc-2c1 [PO2, N-(3-(N-methyl(2-carboxyethyl)amino)phenoxazin-7-ylidene)-N-ethyl(3-sulfonatopropyl)aminium chloride]	–	–	~−0.44 V	~−60 mV	good aqueous solubility
CN(CCCC(=O)O)c1ccc2nc3ccc(N(C)c4ccccc4)cc3[s+]c2c1.[Cl-] [PZ9]	−0.3046 V	–	–	~+60 mV	–
